27 compounds from US20250059141A1, “TLR MODULATOR AND USE THEREOF” (DUALITY BIOLOGICS (SUZHOU) CO., LTD., priority 2021, published 2025) can be followed below.

Structures are written as SMILES.

Test [1] concerns the target T1, hTLR7 (human Toll-like receptor 7) (Homo sapiens, UniProt Q9NYK1).
T1 construct: host or cells: HEK-Blue hTLR7 (HEK293-derived reporter cells)
T1 sequence (Q9NYK1 27-1049): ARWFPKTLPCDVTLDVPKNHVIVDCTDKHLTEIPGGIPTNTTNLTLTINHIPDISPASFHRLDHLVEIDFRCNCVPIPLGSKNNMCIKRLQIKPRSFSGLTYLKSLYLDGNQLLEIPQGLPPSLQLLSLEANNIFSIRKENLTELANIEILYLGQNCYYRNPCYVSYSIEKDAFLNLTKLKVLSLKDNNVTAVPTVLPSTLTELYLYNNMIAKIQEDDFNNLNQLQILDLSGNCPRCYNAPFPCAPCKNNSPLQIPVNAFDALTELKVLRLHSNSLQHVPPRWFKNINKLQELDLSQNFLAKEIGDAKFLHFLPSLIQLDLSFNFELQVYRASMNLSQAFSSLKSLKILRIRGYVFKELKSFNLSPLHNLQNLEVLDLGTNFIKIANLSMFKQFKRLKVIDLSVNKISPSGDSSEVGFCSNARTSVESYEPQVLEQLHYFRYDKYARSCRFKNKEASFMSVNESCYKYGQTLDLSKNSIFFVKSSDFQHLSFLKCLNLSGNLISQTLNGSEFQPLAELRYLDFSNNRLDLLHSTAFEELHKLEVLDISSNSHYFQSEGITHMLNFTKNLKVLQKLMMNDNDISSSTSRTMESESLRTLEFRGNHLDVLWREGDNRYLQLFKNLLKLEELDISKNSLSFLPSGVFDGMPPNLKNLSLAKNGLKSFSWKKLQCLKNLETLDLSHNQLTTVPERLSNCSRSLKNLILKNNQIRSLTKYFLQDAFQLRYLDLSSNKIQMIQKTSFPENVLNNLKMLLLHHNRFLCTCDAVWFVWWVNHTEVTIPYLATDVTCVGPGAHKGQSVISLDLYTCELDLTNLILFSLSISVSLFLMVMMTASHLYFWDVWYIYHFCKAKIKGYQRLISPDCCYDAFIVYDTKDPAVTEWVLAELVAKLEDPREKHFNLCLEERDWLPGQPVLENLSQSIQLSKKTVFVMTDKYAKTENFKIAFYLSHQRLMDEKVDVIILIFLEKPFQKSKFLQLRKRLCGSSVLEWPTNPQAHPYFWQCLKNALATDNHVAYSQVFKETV
Put plainly: HEK-Blue hTLR7 reporter assay (QUANTI-Blue, OD650). It counts as cell-based. Conditions: HEK-Blue hTLR7 cells, 24 h; class symbols; read-out: Reporter assay TLR7 EC50. How it is done:
In this example, the agonistic activity of the compounds of the present application on hTLR7 (human Toll-like receptor 7) and hTLR8 (human Toll-like receptor 8) was assessed; the induction activity of the compounds on human PBMCs for TNF-α and IFN-α production was assessed in human PBMCs (human peripheral blood mononuclear cells).
All compounds were formulated in DMSO into 30 mM stock solutions and preserved at 4° C. The reference compound ([…], Cat. No. tlrl-r848-5) was purchased from InvivoGen and formulated into a 5 mg/mL stock solution in DMSO and preserved in a freezer at −20° C. HEK-Blue hTLR7 and HEK-Blue hTLR8 cell lines were purchased from InvivoGen, and human PBMCs were purchased from Shanghai Saily Biotechnology Co., Ltd. (Cat. No. XFB—HP100B).
The major instruments used in this study were multifunctional microplate reader Flexstation III (Molecular Device), Envision (Perkin Elmer), M2e (Molecular Device), and Echo555 (Labcyte). 2.1 Agonistic activity of compounds on hTLR7 (human Toll-like receptor 7) and hTLR8 (human Toll-like receptor 8)
Compound dilution: The compounds of the present application are diluted in DMSO, for example, to about 15 mM. The reference compound was added to the plates in sequence after dilution. The compounds were serially 3-fold diluted to 10 concentrations and added to 96-well plates in duplicate.
For the negative control wells, DMSO was added at 0.2 μL/well, and the reference compound was added to the positive control wells. The final concentration of DMSO was 0.2%.
Cell plating: When an 80% confluence of HEK Blue hTLR7&8 cells in the culture flask was observed under a microscope, the culture medium was discarded, 10 mL of detection medium was added, and the cells were separated by pipetting. The cells were counted on a cytometer and diluted to 500,000 cells/mL. The cells were plated at 100 μL/50,000 cells/well in the 96-well plates containing the compounds. The compounds and cells were co-incubated at 37° C. in a 5% CO2 incubator for 24 hours.
Compound activity detection: 20 μL of cell supernatant was taken from each well and added to a plate containing QUANTI-Blue™ reagent at 180 μL/well. The plate was incubated at 37° C. for 1 hour, and the absorbance at 650 nm (OD650) was measured on the multifunctional microplate reader Flexstation III.
Compound activity data analysis: The OD650 values were analyzed by GraphPad Prism software and fitted to give dose-response curves of the compounds. The EC50 values of compounds were calculated.
A general note: In a reporter assay the amount or activity of a reporter protein is the signal.

Test [2] deals with IFN-α production in human PBMCs. The experiment in a line: Induction of IFN-α in human PBMCs (ELISA). It counts as cell-based. Conditions: PBMC, 24 h, serial 4-fold dilutions, class symbols, read-out: PBMC assay IFNa EC50. The procedure: In this example, the induction activity of the compounds of the present application on human PBMCs for TNF-α and IFN-α production was assessed in human PBMCs (human peripheral blood mononuclear cells). The human PBMCs were purchased from Shanghai Saily Biotechnology Co., Ltd. (Cat. No. XFB—HP100B). PBMC cells were treated with the compounds. The compounds of the present application are diluted in DMSO, for example, to about 15 mM. The reference compound was added to the plates in sequence after diluted to 5 mg/mL. The compounds were serially 3- or 4-fold diluted to 8 concentrations and added to plates in duplicate (Table 2-1 for serial 3-fold dilutions and Table 2-2 for serial 4-fold dilutions). For the negative control wells, DMSO was added at 0.4 μL/well, and a 5 mg/mL reference compound solution was added to the positive control wells at 0.4 μL/well. The final concentration of DMSO was 0.2%. Frozen human PBMCs in cryopreservation tubes were quickly thawed in a 37° C. water bath and transferred into 50-mL centrifuge tubes. Prewarmed RPMI1640 medium was gradually added and the mixture was well mixed and centrifuged for 15 min before the supernatant was discarded. The cells were resuspended in a culture medium and counted. The cell suspension was adjusted to 2.5×10^6 cells/mL with the culture medium. Diluted cells were added at 200 μL/500,000 cells/well in 96-well plates containing the compounds. The cell plates were incubated at 37° C./5% CO2 for 24 h.
The plate was washed 4 times, then the detection antibody was added. […] The plate was washed 4 additional times, then the enzyme was added. […] Termination of reaction: The reaction was terminated by quickly adding the stop solution at 100 μL/well. Plate reading: The reading at wavelength 450 nm was detected by an M2e instrument within 10 min after the termination.
Compound activity data analysis: The OD450 values were converted to TNF-α and IFN-α contents by GraphPad Prism software analysis and fitted to give dose-response curves of the compounds. The EC50 values for the compounds were calculated, where the Emax values are the maximal values for TNF-α and IFN-α.
(An ELISA detects its analyte on a solid surface through an enzyme-linked reagent.)

For orientation: EC50 means the concentration that produces a half-maximal response. Regarding `NC1=Nc2cc(-c3cncc(CO)c3)ccc2C=C(C(=O)N(CCC(F)(F)F)OCc2ccc(N)cc2)C1` [Compound 58], the half-maximal effective concentration (EC50) in test [1] was 100 to 1000 nM; in test [2] it was 10 to 50 nM.

Consider `CCCN(OCc1ccc(N)cc1Cl)C(=O)C1=Cc2ncc(-c3cncc(CO)c3)cc2N=C(N)C1` [Compound 59], for which the results for the half-maximal effective concentration (EC50) in test [1] and in test [2] were 100 to 1000 nM and 50 to 500 nM, respectively.

On to `CCCN(OCc1ccc(N)cc1OC)C(=O)C1=Cc2ncc(-c3cncc(CO)c3)cc2N=C(N)C1` [Compound 60], for which the concentration for a half-maximal effect (EC50) in test [1] was in the range of 100 to 1000 nM; in test [2], 50 to 500 nM.

As to `CCCN(OCc1ccc(N)cc1)C(=O)C1=Cc2ncc(-c3cncc(CO)c3)cc2N=C(N)C1` [Compound 61], the EC50 in test [1] lay within 100 to 1000 nM; in test [2], 10 to 50 nM.

On to `CCCN(OCc1ccc(N)cc1)C(=O)C1=Cc2ccc(-c3cncc(CO)c3)nc2N=C(N)C1` [Compound 62], for which the half-maximal effective concentration (EC50) in test [1] is 100 to 1000 nM; in test [2] it was not above 10 nM.

For the compound `CCCN(OCc1ccc(N)cc1)C(=O)C1=Cc2ccc(-c3cnc4c(c3)C(=O)OC4)nc2N=C(N)C1` [Compound 63], the half-maximal effective concentration (EC50) in test [1] was 100 to 1000 nM; in test [2], 10 to 50 nM.

As for `CCCN(OCc1ccc(N)cc1)C(=O)C1=Cc2ccc(-c3cccc(S(=O)(=O)NCCO)c3)cc2N=C(N)C1` [Compound 64], the 50% effective concentration (EC50) in test [1] was in the range of 100 to 1000 nM; in test [2], 10 to 50 nM.

Take `CCCN(OCc1ccc(N)cc1)C(=O)C1=Cc2ccc(-c3cccc(S(=O)(=O)N4CCC(O)CC4)c3)cc2N=C(N)C1` [Compound 66]: the EC50 in test [1] was in the range of 100 to 1000 nM; in test [2], 50 to 500 nM.

Consider `CCCN(OCc1ccc(N)cc1)C(=O)C1=Cc2ccc(-c3cccc(S(=O)(=O)N4CCNCC4)c3)cc2N=C(N)C1` [Compound 67], for which the EC50 was 100 to 1000 nM in test [1] and more than 500 nM in test [2].

`CCCN(OCc1ccc(N)cc1)C(=O)C1=Cc2ccc(-c3cccc(S(=O)(=O)N4CCOCC4)c3)cc2N=C(N)C1` [Compound 68]: the EC50 is 100 to 1000 nM in test [1] and 10 to 50 nM in test [2].

`CCCN(OCc1ccc(N)cc1)C(=O)C1=Cc2ccc(-c3cncc(S(=O)(=O)N4CCNCC4)c3)cc2N=C(N)C1` [Compound 69]: the concentration for a half-maximal effect (EC50) fell in the range of 100 to 1000 nM in test [1] and 50 to 500 nM in test [2].

As for `CCCN(OCc1ccc(N)cc1)C(=O)C1=Cc2ccc(-c3cncc(S(=O)(=O)NCCO)c3)cc2N=C(N)C1` [Compound 70], the EC50 is 100 to 1000 nM in test [1] and 10 to 50 nM in test [2].

`CCCN(OCc1ccc(N)cc1)C(=O)C1=Cc2ccc(-c3cncc(S(=O)(=O)N4CCC(O)CC4)c3)cc2N=C(N)C1` [Compound 71]: the EC50 in test [1] was in the range of 100 to 1000 nM; in test [2], 10 to 50 nM.

As for `CCCN(OCc1ccc(N)cc1)C(=O)C1=Cc2ccc(-c3cncc(S(=O)(=O)N4CC[C@H](O)C4)c3)cc2N=C(N)C1` [Compound 72], the concentration for a half-maximal effect (EC50) was 100 to 1000 nM in test [1] and 10 to 50 nM in test [2].

Turning to `CCCN(OCc1ccc(N)cc1)C(=O)C1=Cc2ccc(-c3cncc([S+](C)[O-])c3)cc2N=C(N)C1` (stereo not drawn) [Compound 73], the EC50 in test [1] was 100 to 1000 nM; in test [2], not above 10 nM.

With `CCCN(OCc1ccc(N)cc1)C(=O)C1=Cc2ccc(C(=O)NC(C)(C)c3ccccc3)cc2N=C(N)C1` [Compound 76], the 50% effective concentration (EC50) in test [1] was 100 to 1000 nM; in test [2], 10 to 50 nM.

In the case of `CCCN(OCc1ccc(N)cc1)C(=O)C1=Cc2ccc(C(=O)N[C@@H](C)c3ccccc3)cc2N=C(N)C1` [Compound 77], the half-maximal effective concentration (EC50) in test [1] lay in the range of 100 to 1000 nM; in test [2] it was 10 to 50 nM.

With `CCCN(OCc1ccc(N)cc1)C(=O)C1=Cc2ccc(C(=O)N[C@H]3C[C@@H]3c3ccccc3)cc2N=C(N)C1` [Compound 78], the concentration giving a half-maximal response (EC50) in test [1] is 100 to 1000 nM; in test [2], not above 10 nM.

As for `CCCN(OCc1ccc(N)cc1)C(=O)C1=Cc2ccc(C(=O)NC3COC3)cc2N=C(N)C1` [Compound 81], the EC50 in test [1] was more than 1000 nM; in test [2], 10 to 50 nM.

In the case of `CCCN(OCc1ccc(N)cc1)C(=O)C1=Cc2ccc(C(=O)NC3CCCCC3)cc2N=C(N)C1` [Compound 82], the results for the EC50 in test [1] and in test [2] were more than 1000 nM and 50 to 500 nM, respectively.

For the compound `CCCN(OCc1ccc(N)cc1)C(=O)C1=Cc2ccc(C(=O)NC3CCOCC3)cc2N=C(N)C1` [Compound 84], the figures for the EC50 in test [1] and in test [2] were more than 1000 nM and 50 to 500 nM, respectively.

As for `CCCN(OCc1ccc(N)cc1)C(=O)C1=Cc2ccc(C(=O)Nc3cncc(OC)c3)cc2N=C(N)C1` [Compound 85], the EC50 was more than 1000 nM in test [1] and 50 to 500 nM in test [2].

On to `CCCN(OCc1ccc(N)cc1)C(=O)C1=Cc2ccc(C(=O)Nc3cccc(CN)c3)cc2N=C(N)C1` [Compound 86], for which the EC50 is more than 1000 nM in test [1] and 50 to 500 nM in test [2].

As to `CCCN(OCc1ccc(N)cc1)C(=O)C1=Cc2ccc(C(=O)Nc3ncco3)cc2N=C(N)C1` [Compound 87], the EC50 in test [1] was more than 1000 nM; in test [2] it was 50 to 500 nM.

For the compound `CCCN(OCc1ccc(N)cc1)C(=O)C1=Cc2ccc(C(=O)Nc3ccn(C)n3)cc2N=C(N)C1` [Compound 88], the EC50 is more than 1000 nM in test [1] and 50 to 500 nM in test [2].

As to `CCCN(OCc1ccc(N)cc1)C(=O)C1=Cc2ccc(C(=O)Nc3ccc4cn[nH]c4c3)cc2N=C(N)C1` [Compound 89], the figures for the concentration for a half-maximal effect (EC50) in test [1] and in test [2] were more than 1000 nM and 50 to 500 nM, respectively.

`CCCN(OCc1ccc(N)cc1)C(=O)C1=Cc2ccc(C(=O)Nc3ccc4c(c3)CNC4)cc2N=C(N)C1` [Compound 90]: the EC50 in test [1] is more than 1000 nM; in test [2], 50 to 500 nM.
